Laboratory results: ChEMBL document CHEMBL1201862, “PubChem BioAssay data set” (2004)
Calls of active or inactive are those of the source. Rule as the data show it, for most assays here: actives have a measured EC50 and inactives only a lower limit.

Assays:
[1] = test system: BJ; experiment: cytotoxicity toward BJ-TERT fibroblasts, dose response, cell-based, RAS-independent, luminescence (AID 1933); format: functional; conditions: Homo sapiens
[2] = inhibitors of intracellular T. cruzi replication, confirmation, NIH3T3 host cells, beta-gal luminescence (AID 2044); format: functional, cell-based;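 also: intracellular parasites grown in NIH/3T3 mouse fibroblasts as host cells; luminescent beta-galactosidase reporter signal from transgenic T. cruzi replicating inside host cells; inhibitors lower the luminescence signal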
[3] = test system: BJ; experiment: cells; format: functional, cell-based; conditions: Homo sapiens
[4] = test system: Streptococcus; experiment: Group A Streptococcus viability loss, dose response, counter-screen for streptokinase expression inhibitor project, luminescence, BacTiterGlo (AID 1915); format: functional, organism-based;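 also: potency for reduction of bacterial viability or growth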
[5] = test system: BJ; experiment: cytotoxicity toward BJ-TERT-LT-ST fibroblasts, dose response, cell-based, RAS-independent, luminescence (AID 1935); format: functional; conditions: Homo sapiens;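 also: BJ fibroblasts immortalized with TERT plus LT and ST oncogenes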
[6] = biological target: ATP-dependent molecular chaperone HSP82 (Candida albicans (strain WO-1) (Yeast), UniProt C4YTQ8); experiment: loss of DOC-induced GRE-beta-galactosidase reporter signal, dose response, Hsp90 inhibitor project, S. cerevisiae, luminescence (AID 2400); format: functional, cell-based;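 also: beta-galactosidase luminescence from glucocorticoid response element reporter as proxy for Hsp90 function; inhibitor potency where signal loss means Hsp90 inhibition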
Sequence of ATP-dependent molecular chaperone HSP82 (C4YTQ8 whole entry): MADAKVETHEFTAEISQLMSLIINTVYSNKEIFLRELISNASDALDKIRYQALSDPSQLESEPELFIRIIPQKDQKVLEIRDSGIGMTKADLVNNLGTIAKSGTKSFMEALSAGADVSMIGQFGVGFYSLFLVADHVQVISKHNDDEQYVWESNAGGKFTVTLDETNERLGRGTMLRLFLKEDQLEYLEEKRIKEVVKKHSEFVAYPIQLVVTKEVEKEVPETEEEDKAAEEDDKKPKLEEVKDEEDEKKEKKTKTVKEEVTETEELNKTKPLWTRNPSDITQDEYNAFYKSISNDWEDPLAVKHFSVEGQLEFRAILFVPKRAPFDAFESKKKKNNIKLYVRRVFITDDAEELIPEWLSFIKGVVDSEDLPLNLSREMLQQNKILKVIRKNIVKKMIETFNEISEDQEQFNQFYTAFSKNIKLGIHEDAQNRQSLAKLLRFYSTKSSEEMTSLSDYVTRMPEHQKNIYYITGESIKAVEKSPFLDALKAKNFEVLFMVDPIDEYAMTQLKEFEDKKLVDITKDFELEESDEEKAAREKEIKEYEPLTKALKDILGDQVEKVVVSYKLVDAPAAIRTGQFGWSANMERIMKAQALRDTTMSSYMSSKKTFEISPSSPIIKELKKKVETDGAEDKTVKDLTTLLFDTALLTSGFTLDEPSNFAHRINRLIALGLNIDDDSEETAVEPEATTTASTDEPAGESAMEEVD

[7] = cytotoxicity toward NIH3T3 fibroblasts, dose response, counter-screen, cell-based, ATP luminescence, mouse fibroblasts (AID 2010); format: functional;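 also: cells exposed to compound for about 90 hours before reading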
[8] = test system: INS1; experiment: beta cell apoptosis inhibitors, cytokine rescue, dose response, luminescence, retest (AID 449756); format: functional, cell-based; conditions: Rattus norvegicus;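 also: cell death triggered by IL-1 beta plus TNF-alpha plus IFN-gamma mixture; protective hits raise ATP signal compared with cytokine alone wells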
[9] = NIH-3T3 fibroblast cytotoxicity, dose response, cytotoxicity control, cell-based, fluorescence, Alamar Blue, secondary assay (AID 2327); format: functional;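 also: NIH-3T3 mouse fibroblasts cultured with fluconazole at 8 µg/mL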
[10] = C. albicans growth with fluconazole, confirmation, fluorescence, retest (AID 2467); format: functional, cell-based
[11] = cytotoxicity toward DRD oncogenic fibroblasts, dose response, cell-based, non-viral oncogenic, luminescence (AID 1934); format: functional; conditions: Homo sapiens
[12] = biological target: T1, Streptokinase A (Streptococcus pyogenes serotype M1, UniProt P10520); experiment: S. pyogenes streptokinase expression inhibitors, potency, dose response, plasminogen activation absorbance, OD405 (AID 1914); format: functional, Streptococcus pyogenes M1 GAS;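 also: secreted streptokinase activity via plasminogen activation per viability signal from cell pellet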
T1 sequence (P10520 whole entry): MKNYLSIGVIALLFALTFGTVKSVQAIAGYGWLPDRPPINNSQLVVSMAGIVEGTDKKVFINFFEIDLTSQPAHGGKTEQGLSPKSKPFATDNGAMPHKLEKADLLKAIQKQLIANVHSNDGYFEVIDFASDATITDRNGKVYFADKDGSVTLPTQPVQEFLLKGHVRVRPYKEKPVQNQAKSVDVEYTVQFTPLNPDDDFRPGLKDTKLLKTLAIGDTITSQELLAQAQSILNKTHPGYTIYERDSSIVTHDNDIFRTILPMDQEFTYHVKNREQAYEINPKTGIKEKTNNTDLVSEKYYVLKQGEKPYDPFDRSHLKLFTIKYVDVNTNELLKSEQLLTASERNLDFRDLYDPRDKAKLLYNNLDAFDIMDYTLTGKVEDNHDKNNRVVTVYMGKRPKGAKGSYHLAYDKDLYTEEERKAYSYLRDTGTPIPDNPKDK

[13] = test system: Streptococcus sp. 'group A'; experiment: growth inhibition of control SK(-) GAS strain, dose response, counter-screen for streptokinase expression inhibitor project, luminescence, kanamycin, BacTiterGlo, confirmation (AID 1900); format: functional, organism-based
[14] = biological target: Serine/threonine-protein phosphatase (Candida dubliniensis (strain CD36 / CBS 7987 / NCPF 3949 / NRRLY-17841) (Yeast), UniProt B9W6M3); experiment: calcineurin pathway inhibitors in yeast reporter, dose response, S. cerevisiae, CDRE-lacZ, luminescence, secondary (AID 2388); format: functional, cell-based;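 also: yeast reporter cells carrying a calcineurin-responsive lacZ construct stimulated with calcium chloride; luminescent beta-galactosidase reporter signal in whole cells rather than isolated phosphatase activity; potency for inhibition where a drop in reporter signal means calcineurin blockade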
Sequence of Serine/threonine-protein phosphatase (B9W6M3 whole entry): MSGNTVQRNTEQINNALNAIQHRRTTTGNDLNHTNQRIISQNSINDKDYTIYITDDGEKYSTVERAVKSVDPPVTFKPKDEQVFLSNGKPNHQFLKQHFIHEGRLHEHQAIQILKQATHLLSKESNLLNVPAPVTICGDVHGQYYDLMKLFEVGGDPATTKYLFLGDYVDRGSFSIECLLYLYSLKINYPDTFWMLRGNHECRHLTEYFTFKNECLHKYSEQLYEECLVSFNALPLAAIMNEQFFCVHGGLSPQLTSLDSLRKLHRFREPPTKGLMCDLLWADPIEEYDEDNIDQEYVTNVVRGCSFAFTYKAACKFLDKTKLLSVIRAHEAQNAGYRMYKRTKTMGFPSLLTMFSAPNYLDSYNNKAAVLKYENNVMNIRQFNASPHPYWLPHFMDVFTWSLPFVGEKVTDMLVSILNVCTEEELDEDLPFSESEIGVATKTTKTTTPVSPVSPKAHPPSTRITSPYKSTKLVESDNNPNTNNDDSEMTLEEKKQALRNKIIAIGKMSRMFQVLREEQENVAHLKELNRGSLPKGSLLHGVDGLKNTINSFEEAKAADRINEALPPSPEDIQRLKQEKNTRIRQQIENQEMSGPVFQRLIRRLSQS

[15] = Luminescence Cell-Based Dose Response to Identify Activators of 5'UTR Stem-Loop Driven Prion Protein mRNA Translation in H4-C Neuroglioblastoma Cells. [Related pubchem assays: 1829 (Project Summary), 1814 (Primary HTS)]; format: functional
[16] = test system: H4; experiment: Luminescence Cell-Based Dose Response HTS to Identify Activators of 5'UTR Stem-Loop Driven Prion Protein mRNA Translation in H4 Neuroglioblastoma Cells. [Related pubchem assays: 1829 (Project Summary), 1814 (Primary HTS)]; format: functional; conditions: Homo sapiens
[17] = test system: HEK293; experiment: cells; format: functional, cell-based; conditions: Homo sapiens
[18] = Luminescence Cell-Based Dose Response HTS to Identify Activators of Luciferase Translation or Activity in H4 […] Cells. [Related pubchem assays: 1829 (Project Summary), 1814 (Primary HTS)]; format: functional
[19] = Luminescence Cell-Based Dose Confirmation to Identify Activators of 5'UTR Stem-Loop Driven Alpha-Synuclein mRNA Translation in H4 Neuroglioblastoma Cells. [Related pubchem assays: 1829 (Project Summary), 1814 (Primary HTS)]; format: functional
[20] = Luminescence Cell-Based Dose Confirmation HTS to Identify Activators of 5'UTR Stem-Loop Driven Alpha-Synuclein mRNA Translation in H4 Neuroglioblastoma Cells. [Related pubchem assays: 1829 (Project Summary), 1814 (Primary HTS)]; format: functional
[21] = Luminescence Cell-Based Dose Response to Identify Activators of Luciferase Translation or Activity in H4-C Neuroglioblastoma Cells. [Related pubchem assays: 1829 (Project Summary), 1814 (Primary HTS)]; format: functional
[22] = biological target: T2, Nuclear receptor subfamily 0 group B member 1 (Homo sapiens, UniProt P51843); experiment: Luminescence-based cell-based high throughput dose response assay for inhibitors of the orphan nuclear receptor subfamily 0, group B, member 1 (DAX1; NR0B1). [Related pubchem assays (depositor defined):AID504766, AID504790]; format: functional
T2 sequence (P51843 whole entry): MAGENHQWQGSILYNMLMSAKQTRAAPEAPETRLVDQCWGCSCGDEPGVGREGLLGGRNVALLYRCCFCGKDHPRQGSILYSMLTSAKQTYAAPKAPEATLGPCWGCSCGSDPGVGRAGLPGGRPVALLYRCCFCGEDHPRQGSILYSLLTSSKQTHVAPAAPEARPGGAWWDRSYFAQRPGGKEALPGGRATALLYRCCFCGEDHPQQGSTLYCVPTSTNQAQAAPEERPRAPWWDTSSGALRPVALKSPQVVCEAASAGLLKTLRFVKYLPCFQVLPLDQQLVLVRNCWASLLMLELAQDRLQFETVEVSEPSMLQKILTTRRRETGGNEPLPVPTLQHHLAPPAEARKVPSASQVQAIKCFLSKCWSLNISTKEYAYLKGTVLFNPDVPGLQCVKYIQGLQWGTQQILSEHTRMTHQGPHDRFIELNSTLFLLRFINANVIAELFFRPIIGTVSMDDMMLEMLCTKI

[23] = biological target: T3, Corticotropin-releasing factor receptor 2/Corticotropin-releasing factor-binding protein (Homo sapiens, UniProt P24387+Q13324); experiment: activators of CRF receptor 2 with binding protein – uHTS hits, confirmation (AID 602473); format: functional; conditions: read-out: EC50_Mean
T3 sequence (Q13324 whole entry): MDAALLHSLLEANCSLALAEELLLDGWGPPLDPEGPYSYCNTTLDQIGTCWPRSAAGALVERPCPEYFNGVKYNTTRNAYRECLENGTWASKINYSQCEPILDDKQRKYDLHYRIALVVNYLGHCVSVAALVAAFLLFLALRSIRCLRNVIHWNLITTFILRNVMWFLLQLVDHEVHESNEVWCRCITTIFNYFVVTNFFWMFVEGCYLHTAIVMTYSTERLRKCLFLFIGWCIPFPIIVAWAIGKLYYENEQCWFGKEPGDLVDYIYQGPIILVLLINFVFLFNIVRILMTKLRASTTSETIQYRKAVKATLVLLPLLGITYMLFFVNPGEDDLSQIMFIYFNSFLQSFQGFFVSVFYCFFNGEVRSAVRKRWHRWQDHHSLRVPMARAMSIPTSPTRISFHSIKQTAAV
T3 sequence (P24387 whole entry): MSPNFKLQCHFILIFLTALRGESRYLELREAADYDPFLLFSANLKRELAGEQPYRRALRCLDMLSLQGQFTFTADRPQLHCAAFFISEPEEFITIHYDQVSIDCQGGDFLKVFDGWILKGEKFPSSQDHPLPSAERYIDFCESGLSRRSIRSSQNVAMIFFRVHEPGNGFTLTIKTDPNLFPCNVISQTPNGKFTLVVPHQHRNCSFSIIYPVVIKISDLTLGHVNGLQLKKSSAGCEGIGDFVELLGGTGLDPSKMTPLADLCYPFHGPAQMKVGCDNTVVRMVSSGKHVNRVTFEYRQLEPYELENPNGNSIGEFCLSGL

[24] = biological target: NACHT, LRR and PYD domains-containing protein 3 (Homo sapiens, UniProt Q96P20); experiment: NALP3 inhibitors in yeast, dose response, luminescent (AID 488799); format: functional
Sequence of NACHT, LRR and PYD domains-containing protein 3 (Q96P20 whole entry, the tested form may be a part): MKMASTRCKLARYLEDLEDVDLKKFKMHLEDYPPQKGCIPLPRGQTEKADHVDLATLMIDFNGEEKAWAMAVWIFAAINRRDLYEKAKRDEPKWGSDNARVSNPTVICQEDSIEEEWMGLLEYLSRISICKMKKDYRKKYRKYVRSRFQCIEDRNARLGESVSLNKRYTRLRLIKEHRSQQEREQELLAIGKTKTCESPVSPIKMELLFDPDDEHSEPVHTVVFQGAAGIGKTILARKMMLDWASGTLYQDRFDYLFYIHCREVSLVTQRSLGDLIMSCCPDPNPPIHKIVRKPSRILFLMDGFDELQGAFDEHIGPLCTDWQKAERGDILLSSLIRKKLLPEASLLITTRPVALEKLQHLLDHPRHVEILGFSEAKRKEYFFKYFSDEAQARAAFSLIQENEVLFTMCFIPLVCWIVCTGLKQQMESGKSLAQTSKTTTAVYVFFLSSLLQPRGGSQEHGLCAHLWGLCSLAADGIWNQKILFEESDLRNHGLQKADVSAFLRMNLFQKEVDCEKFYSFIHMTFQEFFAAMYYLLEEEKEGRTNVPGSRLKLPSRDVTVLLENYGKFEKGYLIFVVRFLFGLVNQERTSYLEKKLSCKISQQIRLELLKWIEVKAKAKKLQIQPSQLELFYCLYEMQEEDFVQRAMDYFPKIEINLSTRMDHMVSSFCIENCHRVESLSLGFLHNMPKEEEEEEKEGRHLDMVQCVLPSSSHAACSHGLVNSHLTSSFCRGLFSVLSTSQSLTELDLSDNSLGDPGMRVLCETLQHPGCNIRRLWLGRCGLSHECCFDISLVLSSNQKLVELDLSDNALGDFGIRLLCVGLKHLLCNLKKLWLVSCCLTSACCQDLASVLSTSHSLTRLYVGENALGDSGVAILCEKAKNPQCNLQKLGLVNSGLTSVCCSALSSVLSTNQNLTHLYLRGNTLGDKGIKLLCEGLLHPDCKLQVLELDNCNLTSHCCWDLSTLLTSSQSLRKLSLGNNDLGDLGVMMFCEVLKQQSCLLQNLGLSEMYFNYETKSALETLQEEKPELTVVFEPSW

[25] = test system: Vero; experiment: cells; format: functional; conditions: Chlorocebus sabaeus
[26] = test system: Vero; experiment: cells; format: functional, cell-based; conditions: Chlorocebus sabaeus
[27] = biological target: T4, Zinc finger protein mex-5 (Caenorhabditis elegans, UniProt Q9XUB2); experiment: MEX-5/TCR-2 RNA interaction inhibitors, dose response, biochemical, C. elegans, fluorescence polarization (AID 1960)
T4 sequence (Q9XUB2 whole entry): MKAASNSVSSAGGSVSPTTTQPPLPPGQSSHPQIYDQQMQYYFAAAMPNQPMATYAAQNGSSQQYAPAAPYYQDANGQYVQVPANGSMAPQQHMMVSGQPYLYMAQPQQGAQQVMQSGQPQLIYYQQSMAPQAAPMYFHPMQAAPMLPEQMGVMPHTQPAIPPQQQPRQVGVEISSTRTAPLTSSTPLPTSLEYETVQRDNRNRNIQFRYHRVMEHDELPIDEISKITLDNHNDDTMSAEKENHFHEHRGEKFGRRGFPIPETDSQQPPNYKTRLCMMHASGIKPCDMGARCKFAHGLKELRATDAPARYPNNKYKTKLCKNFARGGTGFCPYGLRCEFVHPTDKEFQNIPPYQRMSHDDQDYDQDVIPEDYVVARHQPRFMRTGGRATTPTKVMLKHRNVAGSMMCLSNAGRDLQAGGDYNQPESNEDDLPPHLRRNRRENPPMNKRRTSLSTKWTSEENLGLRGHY

[28] = biological target: Keap1/Nrf2 (Homo sapiens, UniProt Q14145); experiment: Keap1-Nrf2 protein-protein interaction inhibitors, dose response, biochemical, fluorescence polarization, cherry-picked samples (AID 588683)
Sequence of Keap1/Nrf2 (Q16236 whole entry, the tested form may be a part): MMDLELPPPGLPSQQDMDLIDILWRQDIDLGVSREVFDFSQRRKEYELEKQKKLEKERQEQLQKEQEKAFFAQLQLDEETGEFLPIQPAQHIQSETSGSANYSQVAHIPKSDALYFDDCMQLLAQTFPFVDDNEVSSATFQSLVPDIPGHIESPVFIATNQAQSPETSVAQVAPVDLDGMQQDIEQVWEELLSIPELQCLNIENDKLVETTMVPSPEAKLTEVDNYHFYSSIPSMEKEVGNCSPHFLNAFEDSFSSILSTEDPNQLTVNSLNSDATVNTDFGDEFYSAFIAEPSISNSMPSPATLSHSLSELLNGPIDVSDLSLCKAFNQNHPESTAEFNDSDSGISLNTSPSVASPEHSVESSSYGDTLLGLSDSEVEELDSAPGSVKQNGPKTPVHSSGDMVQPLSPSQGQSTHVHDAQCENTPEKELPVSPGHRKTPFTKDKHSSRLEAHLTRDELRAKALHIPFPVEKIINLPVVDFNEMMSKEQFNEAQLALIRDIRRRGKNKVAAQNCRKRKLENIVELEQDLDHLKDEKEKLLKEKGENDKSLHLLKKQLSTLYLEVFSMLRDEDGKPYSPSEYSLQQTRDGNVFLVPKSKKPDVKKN
Sequence of Keap1/Nrf2 (Q14145 whole entry, the tested form may be a part): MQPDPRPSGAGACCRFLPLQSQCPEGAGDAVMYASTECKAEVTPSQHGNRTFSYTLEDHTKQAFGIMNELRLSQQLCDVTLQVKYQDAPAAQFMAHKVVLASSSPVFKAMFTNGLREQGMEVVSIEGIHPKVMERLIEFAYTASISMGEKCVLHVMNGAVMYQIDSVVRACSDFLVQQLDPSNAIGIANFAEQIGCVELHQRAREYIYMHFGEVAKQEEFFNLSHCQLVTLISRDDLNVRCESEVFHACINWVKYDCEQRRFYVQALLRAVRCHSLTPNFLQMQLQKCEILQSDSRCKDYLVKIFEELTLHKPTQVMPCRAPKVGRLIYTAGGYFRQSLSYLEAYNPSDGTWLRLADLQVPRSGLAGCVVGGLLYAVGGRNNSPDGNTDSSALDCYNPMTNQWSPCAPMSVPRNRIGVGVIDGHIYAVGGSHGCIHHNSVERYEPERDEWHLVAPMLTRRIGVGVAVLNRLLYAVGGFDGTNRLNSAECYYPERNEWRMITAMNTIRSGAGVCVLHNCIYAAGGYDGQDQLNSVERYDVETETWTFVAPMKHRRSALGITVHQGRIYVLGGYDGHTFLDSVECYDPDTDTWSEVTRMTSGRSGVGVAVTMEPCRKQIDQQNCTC

[29] = biological target: T5, RNA-binding protein pos-1 (Caenorhabditis elegans, UniProt G5EF15); experiment: inhibitors of POS-1/mex-3 RNA binding, dose response, biochemical, fluorescence polarization (AID 1964);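 also: purified POS-1 fused to maltose binding protein made in E. coli; potency of compounds blocking POS-1 binding to fluorescent RNA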
T5 sequence (G5EF15 whole entry): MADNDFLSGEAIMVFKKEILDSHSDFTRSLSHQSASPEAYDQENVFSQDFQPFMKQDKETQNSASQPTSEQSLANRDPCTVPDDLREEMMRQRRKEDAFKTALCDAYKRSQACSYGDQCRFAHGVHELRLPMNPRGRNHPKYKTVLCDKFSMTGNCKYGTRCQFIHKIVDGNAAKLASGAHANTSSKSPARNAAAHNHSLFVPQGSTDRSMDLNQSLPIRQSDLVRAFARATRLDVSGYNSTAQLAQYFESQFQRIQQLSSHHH

Structure (SMILES): Nc1nonc1-n1nnc(C(=O)N/N=C/c2cc(Cl)ccc2O)c1CN1CCCCCC1
- EC50 [1]: 24.9 µM (active)
- EC50 [2]: 1.39 µM (active)
- EC50 [3]: 115 µM (active)
- EC50 [4]: 20.4 µM (active)
- EC50 [5]: > 75 µM (not active)
- EC50 [6]: > 150 µM (inactive)
- EC50 [7]: 6.91 µM (active)
- AC50 [8]: 1.85 µM (active)
- EC50 [9]: 29.6 µM (active)
- EC50 [10]: 296 nM (active)
- EC50 [11]: 55.4 µM (active)
- EC50 [12]: > 150 µM (not active)
- EC50 [13]: 4.87 µM (active)
- EC50 [14]: > 180 µM (inactive)

Structure (SMILES): COc1ccc(C(=O)C[n+]2ccc3ccccc3c2C)cc1
- EC50 [15]: 646 nM (active)
- EC50 [16]: > 120 µM (not active)
- IC50 [17]: > 67.5 µM (inactive)
- EC50 [18]: 235 nM (active)
- EC50 [19]: 375 nM (active)
- EC50 [20]: < 100 nM (active)
- EC50 [21]: 402 nM (active)
- IC50 [22]: > 67.5 µM (inactive)

Structure (SMILES): O=C(NNC(=S)NC(=O)c1ccc(Br)cc1)c1ccc([N+](=O)[O-])cc1
- EC50 [23]: 5.32 µM (active)
- EC50 [6]: > 160 µM (inactive)
- EC50 [9]: > 160 µM (inconclusive)
- EC50 [10]: 198 nM (active)
- IC50 [24]: 5.63 µM (active)
- EC50 [14]: > 180 µM (inactive)

Structure (SMILES): C#CCn1c(S(=O)(=O)Cc2ccc(C)cc2)nc(-c2ccccc2)c1-c1ccccc1
- CC50 [25]: 22.6 µM (active)
- IC50 [26]: 3.84 µM (active)

Structure (SMILES): CC(C)c1nnc(N2C(=O)C(O)=C(C(=O)c3cccs3)C2c2ccccc2)s1 (stereo not drawn)
- EC50 [27]: 4.38 µM (inconclusive)
- AC50 [28]: 13.4 µM (active)
- EC50 [29]: 33.9 µM (inconclusive)
